Laboratory results: patent publication US7223751B2, “Sulfonamide derivatives, intermediate thereof, its preparation methods, and pharmaceutical composition comprising the same” (Kolon Ind. Inc., priority 2001, dated 2007)

Key:
MMP-1 = biological target: T1, MMP-1 (Homo sapiens, UniProt P03956); experiment: MMP inhibiting activity, fluorescence assay; format: biochemical; settings: read-out: Enzyme inhibiting constant IC50 MMP-1
T1 sequence (P03956 100-469): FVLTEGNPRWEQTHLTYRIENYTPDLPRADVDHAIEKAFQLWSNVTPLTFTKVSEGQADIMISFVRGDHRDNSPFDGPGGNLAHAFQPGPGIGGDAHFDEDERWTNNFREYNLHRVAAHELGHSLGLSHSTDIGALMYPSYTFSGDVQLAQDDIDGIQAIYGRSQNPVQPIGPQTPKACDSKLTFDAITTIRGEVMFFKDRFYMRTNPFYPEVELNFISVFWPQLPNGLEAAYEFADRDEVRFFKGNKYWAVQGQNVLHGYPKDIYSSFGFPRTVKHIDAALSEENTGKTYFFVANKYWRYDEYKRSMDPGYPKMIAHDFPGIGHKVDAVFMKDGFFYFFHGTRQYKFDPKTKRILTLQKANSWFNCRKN
Experimental: (§1) Inhibitory activities of all the enzymes were measured similarly to the MMP-2 activity measuring method shown below. Prior to measuring, proMMP-2 was treated with 1 mM p-aminophenyl mercuricacetate at 37° C. for 45 minutes to activate it. The ProMMP-9 was activated to an enzyme with MMP-3, and stored at −80° C. until used.
(§2) MMP activities were measured by fluorescence assay by changing a microtiter plate formate according to the reported method (Knight, C. G., Willenbrock, F., Murphy, G. A., FEBS Lett. 1992, 296, 263-266). On a dynatech MicroFLUOR plate, a buffer solution comprising 50 Mm Tris-HCl pH 7.5, 10 mM CaCl2, 0.15 M NaCl, 0.05% Brij, and 1-8 μM of a substrate (Mca-Pro-Leu-Gly-Leu-Dpa-Ala-Arg-NH2), and various concentrations of inhibitors were introduced, and it was reacted with activated enzymes at 37° C. for 20-30 minutes. Reaction was terminated by putting the reactant in 50 mM EDTA, and then fluorescence was measured with a spectrofluorometer attached to a microplate reader (λex 328 nm, λ em 393 nm). The inhibiting activity degree was indicated by an IC50 value, which is a concentration inhibiting activity by 50% compared to the control.

MMP-13 = MMP-13 (Homo sapiens, UniProt P45452); experiment: MMP inhibiting activity, fluorescence assay; format: biochemical; settings: read-out: Enzyme inhibiting constant IC50 MMP-13
Experimental: as §1, §2

MMP-2 = biological target: T2, MMP-2 (Homo sapiens, UniProt P08253); experiment: MMP inhibiting activity, fluorescence assay; format: biochemical; settings: read-out: Enzyme inhibiting constant IC50 MMP-2
T2 sequence (P08253 110-660): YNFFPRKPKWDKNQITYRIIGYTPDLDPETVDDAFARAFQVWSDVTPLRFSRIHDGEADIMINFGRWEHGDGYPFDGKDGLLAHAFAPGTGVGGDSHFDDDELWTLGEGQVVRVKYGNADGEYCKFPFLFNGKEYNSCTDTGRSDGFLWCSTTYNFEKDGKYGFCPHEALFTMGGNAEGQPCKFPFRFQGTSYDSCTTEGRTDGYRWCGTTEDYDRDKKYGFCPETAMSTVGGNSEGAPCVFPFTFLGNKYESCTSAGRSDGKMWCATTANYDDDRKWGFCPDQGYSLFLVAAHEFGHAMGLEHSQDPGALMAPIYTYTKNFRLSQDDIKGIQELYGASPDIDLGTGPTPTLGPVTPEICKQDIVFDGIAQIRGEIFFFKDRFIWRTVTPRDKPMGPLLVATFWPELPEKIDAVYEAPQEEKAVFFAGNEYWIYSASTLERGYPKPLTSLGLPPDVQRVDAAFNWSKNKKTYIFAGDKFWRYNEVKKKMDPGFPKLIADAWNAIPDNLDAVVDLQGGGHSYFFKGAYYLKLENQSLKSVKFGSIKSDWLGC
Experimental: as §1, §2

[1] = system: HUVEC (human umbilical vein endothelial cell) cells; experiment: Tube formation activity on matrigel; format: cell-based; set-up: key: −: control; ±: tube almost resembles control; +: inhibition; ++: significant inhibition; +++: complete inhibition; settings: 16-24 hours
Experimental: In a culture flask previously coated with gelatin, HUVEC (human umbilical vein endothelial cell) cells cultured with a M199 medium (containing 20% FBS, 3 ng/ml bFGF, 100 μg/ml heparin) were treated with trypsin/EDTA, and then number of cells are counted so that number of cells may be 2×10^4 cells/well in a 96-well plate previously coated with matrigel. Samples were then added and cultured in a CO2 culture medium at 37° C. for 16-24 hours.

IC50 (MMP-1) [µM]	IC50 (MMP-13) [µM]	IC50 (MMP-2) [µM]	Compound	Tube Formation ([1]; concentration 5 μM)	Tube Formation ([1]; concentration 50 μM)	Tube Formation ([1]; concentration 100 μM)	Tube Formation ([1]; concentration 0.5 μM)
> 10	> 10	> 10	COc1ccc(S(=O)(=O)N2CC(=O)N(CCc3ccccn3)CC2C(=O)NO)cc1 (centres unmarked) [Example 15]	+	+	++	
			CCCCOCCCN1CC(C(=O)O)N(S(=O)(=O)c2ccc(-c3ccc(Br)cc3)cc2)CC1=O (centres unmarked) [Example 41, 1-(4′-Bromo-biphenyl-4-sulfonyl)-4-(3-butoxy-propyl)-5-oxo-piperazine-2-carboxylic acid]	++	+++		++
			CN(C)CCCN1CC(C(=O)O)N(S(=O)(=O)c2ccc(-c3ccc(Br)cc3)cc2)CC1=O (centres unmarked) [Example 43, 1-(4′-Bromo-biphenyl-4-sulfonyl)-4-(3-dimethylamino-propyl)-5-oxo-piperazine-2-carboxylic acid]	++	++		+
0.095	0.082	0.011	CCCCCCN1CC(C(=O)O)N(S(=O)(=O)c2ccc(-c3ccc(Br)cc3)cc2)CC1=O (centres unmarked) [Example 45, 1-(4′-Bromo-biphenyl-4-sulfonyl)-4-hexyl-5-oxo-piperazine-2-carboxylic acid]	++	++		++
8.27	2.35	0.567	CCCCCCCCCCCCN1CC(C(=O)O)N(S(=O)(=O)c2ccc(-c3ccc(Br)cc3)cc2)CC1=O (centres unmarked) [Example 39, 1-(4′-Bromo-biphenyl-4-sulfonyl)-4-dodecyl-5-oxo-piperazine-2-carboxylic acid]	−	+		−
			COc1ccc(S(=O)(=O)N2CC(=O)N(Cc3ccccn3)CC2C(=O)NO)cc1.Cl (centres unmarked) [Example 13, 1-(4-Methoxy-benzenesulfonyl)-5-oxo-4-pyridin-2-yl-methyl-piperazine-2-hydroxamate hydrochloride]	±	+	+	
			COc1ccc(S(=O)(=O)N2CC(=O)N(CCN3CCOCC3)CC2C(=O)NO)cc1.Cl (centres unmarked) [Example 11, 1-(4-Methoxy-benzenesulfonyl)-4-(2-morpholin-4-yl-ethyl)-5-oxo-piperazine-2-hydroxamate hydrochloride]	±	+		
> 10	> 10	0.22	CCCCCCCCC=CCCCCCCCCN1CC(C(=O)O)N(S(=O)(=O)c2ccc(-c3ccc(Br)cc3)cc2)CC1=O (centres unmarked) [Example 53, 1-(4′-Bromo-biphenyl-4-sulfonyl)-4-octadec-9-enyl-5-oxo-piperazine-2-carboxylic acid]				
5.4	2.46	0.14	CCCCCCCCCCN1CC(C(=O)O)N(S(=O)(=O)c2ccc(-c3ccc(Br)cc3)cc2)CC1=O (centres unmarked) [Example 47, 1-(4′-Bromo-biphenyl-4-sulfonyl)-4-decyl-5-oxo-piperazine-2-carboxylic acid]	++	+++		++
			1-(4-Methoxy-benzenesulfonyl)-5-oxo-4-prop-2-ynyl-piperazine-2-hydroxamate [Example 23]	+	++	+++	
0.114	1.13	0.009	CCCCN1CC(C(=O)O)N(S(=O)(=O)c2ccc(-c3ccc(Br)cc3)cc2)CC1=O (centres unmarked) [Example 49, 1-(4′-Bromo-biphenyl-4-sulfonyl)-4-butyl-5-oxo-piperazine-2-carboxylic acid]	++	++		±
			4-Cyclopropyl-1-(4-methoxy-benzenesulfonyl)-5-oxo-piperazine-2-hydroxamate [Example 17]	+	+	++	
			O=C(O)C1CN(Cc2ccccc2)C(=O)CN1S(=O)(=O)c1ccc(-c2ccc(Br)cc2)cc1 (centres unmarked) [Example 37, 4-Benzyl-1-(4′-bromo-biphenyl-4-sulfonyl)-5-oxo-piperazine-2-carboxylic acid]	++	+++		++
			COc1ccc(S(=O)(=O)N2CC(=O)N(CCN3CCCCC3)CC2C(=O)NO)cc1.Cl (centres unmarked) [Example 9, 1-(4-Methoxy-benzenesulfonyl)-5-oxo-4-(2-piperidin-1-yl-ethyl)-piperazine-2-hydroxamate hydrochloride]	−	±		
			4-Allyl-1-(4-methoxy-benzenesulfonyl)-5-oxo-piperazine-2-hydroxamate [Example 21]	±	+		
			CCCCN1CC(C(=O)O)N(S(=O)(=O)c2ccc(OC)cc2)CC1=O (centres unmarked) [Example 26, 4-Butyl-1-(4-methoxy-benzenesulfonyl)-5-oxo-piperazine-2-carboxylic acid]	±	+	++	
			C#CCN1CC(C(=O)O)N(S(=O)(=O)c2ccc(-c3ccc(Br)cc3)cc2)CC1=O (centres unmarked) [Example 35, 1-(4′-Bromo-biphenyl-4-sulfonyl)-5-oxo-4-prop-2-ynyl-piperazine-2-carboxylic acid]	++	+++		++
			1-Cyclopropyl-5-hydroxymethyl-4-(4-methoxy-benzenesulfonyl)-5-oxo-piperazin-2-one [Example 27]	++	++		
			CCCCCCCCN1CC(C(=O)O)N(S(=O)(=O)c2ccc(-n3cccc3)cc2)CC1=O (centres unmarked) [Example 58, 4-Octyl-5-oxo-1-(4-pyrrol-1-yl-benzenesulfonyl)-piperazine-2-carboxylic acid]	++	++		±
0.029	0.019	0.005	O=C(O)C1CN(CCCCCCO)C(=O)CN1S(=O)(=O)c1ccc(-c2ccc(Br)cc2)cc1 (centres unmarked) [Example 51, 1-(4′-Bromo-biphenyl-4-sulfonyl)-4-(6-hydroxy-hexyl)-5-oxo-piperazine-2-carboxylic acid]				
2.43	2.1	0.08	CCCCCCCCN1CC(C(=O)O)N(S(=O)(=O)c2ccc(-c3ccc(Br)cc3)cc2)CC1=O (centres unmarked) [Example 33, 1-(4′-Bromo-biphenyl-4-sulfonyl)-4-octyl-5-oxo-piperazine-2-carboxylic acid]	+	++	+++	

Compound	IC50 (MMP-1) [µM]	IC50 (MMP-13) [µM]	IC50 (MMP-2) [µM]	Tube Formation ([1]; concentration 5 μM)	Tube Formation ([1]; concentration 50 μM)	Tube Formation ([1]; concentration 100 μM)	Tube Formation ([1]; concentration 0.5 μM)
1-(4-Methoxy-benzenesulfonyl)-4-methyl-5-oxo-piperazine-2-hydroxamate [Example 25]	0.082	0.016	0.003	−	−	+	
4-Butyl-1-(4-methoxy-benzenesulfonyl)-5-oxo-piperazine-2-hydroxamate [Example 19]	0.047	0.014	0.015	+	+	++	
